# Assay results taken from patent US20110046066A1, “INHIBITORS OF IAP” (GENENTECH, INC., priority 2008, published 2011).
# pIC50, pKi: −log10 of the molar value.
# Assays:
# X-IAP BIR3 = molecular target: T1, X-IAP BIR3 (Homo sapiens, UniProt P98170); assay: Fluorescence polarization peptide binding assay, X-IAP BIR3; settings: for pIC50: 0.5 μM X-IAP BIR3, 5 nM AVP-diPhe-FAM probe, one hour incubation; for pKi: determined from the IC50 values (procedure of Keating et al.)
# T1 construct: 0.5 μM X-IAP BIR3
# Protocol: (§1) Polarization experiments were performed on an Analyst HT 96-384 reader (Molecular Devices Corp.) in order to determine dissociation constants (Kd) between IAP protein BIR domains and the fluorescent probe. Samples for fluorescence polarization affinity experiments were prepared by addition of serial dilutions of IAP BIR domains (C-IAP1 BIR3, C-IAP-2 BIR3, ML/X-IAP chimera MLXBIR3SG and X-IAP BIR3) in polarization buffer (50 mM Tris [pH 7.2], 120 mM NaCl, 1% bovine globulins 5 mM DTT and 0.05% octylglucoside) to 5-carboxyflourescein-conjugated AVPdi-Phe-NH2 (AVP-diPhe-FAM) at 5 nM final concentration.
# (§2) The reactions were read after an incubation time of 1 hour at room temperature with standard cut-off filters for the fluorescein fluorophore (λex=485 nm; λem=530 nm) in 384-well black plates (Molecular Devices Corp.). Fluorescence polarization values were plotted as a function of the protein concentration, and the effective concentration 50 (EC50) values were obtained by fitting the data to a 4-parameter equation using Kaleidagraph software (Synergy software, Reading, Pa.). The apparent Kd values were determined from the EC50 values. Inhibition Constants (Ki values) for the antagonists were determined by the addition of 0.06 μM MLXBIR3SG, 0.5 μM X-IAP BIR3, 0.2 μM C-IAP1 BIR3 or 0.4 μM C-IAP-2 BIR3 to wells containing 5 nM of the AVP-diPhe-FAM probe as well as 1:3 serial dilutions of antagonist compounds starting at a concentration of 200 μM in the polarization buffer. Samples were read after an incubation time of one hour. Fluorescence polarization values were plotted as a function of the antagonist concentration, and the IC50 values were obtained by fitting the data to a 4-parameter equation using Kaleidagraph software (Synergy software, Reading, Pa.). Ki values for the antagonists were determined from the IC50 values according to the procedure of Keating, S. M., Marsters, J, Beresini, M., Ladner, C., Zioncheck, K., Clark, K., Arellano, F., and Bodary, S. (2000) in Proceedings of SPIE: In Vitro Diagnostic Instrumentation (Cohn, G. E., Ed.) pp 128-137, Bellingham, Wash. […] All values are micromolar.
# [1] = molecular target: T2, ML/X-IAP chimera MLXBIR3SG (Homo sapiens, UniProt Q96CA5, S150G); assay: Fluorescence polarization peptide binding assay, MLXBIR3SG; settings: for pIC50: 0.06 μM MLXBIR3SG, 5 nM AVP-diPhe-FAM probe, one hour incubation; for pKi: determined from the IC50 values (procedure of Keating et al.)
# T2 sequence (Q96CA5 with tags, fused parts or gaps S150G): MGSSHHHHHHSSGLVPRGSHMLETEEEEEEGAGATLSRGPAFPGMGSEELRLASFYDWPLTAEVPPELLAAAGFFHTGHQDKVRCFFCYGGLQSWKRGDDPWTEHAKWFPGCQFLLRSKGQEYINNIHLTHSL
# Protocol: The following fluorescence polarization experiments used a chimeric BIR domain referred to as MLXBIR3SG in which 11 of 110 residues correspond to those found in XIAP BIR3, while the remainder correspond to ML-IAP BIR. […] The improved caspase-9 inhibition of the chimeric BIR domain MLXBIR3SG has been correlated with increased inhibition of doxorubicin-induced apoptosis when transfected into MCF7 cells.
# as §1, §2
# C-IAP2 BIR3 = molecular target: T3, C-IAP2 BIR3 (Homo sapiens, UniProt Q13489); assay: Fluorescence polarization peptide binding assay, C-IAP2 BIR3; settings: for pIC50: 0.4 μM C-IAP-2 BIR3, 5 nM AVP-diPhe-FAM probe, one hour incubation; for pKi: determined from the IC50 values (procedure of Keating et al.)
# T3 construct: 0.4 μM C-IAP-2 BIR3
# Protocol: as §1, §2
# C-IAP1 BIR3 = molecular target: T4, C-IAP1 BIR3 (Homo sapiens, UniProt Q13490); assay: Fluorescence polarization peptide binding assay, C-IAP1 BIR3; settings: for pIC50: 0.2 μM C-IAP1 BIR3, 5 nM AVP-diPhe-FAM probe, one hour incubation; for pKi: determined from the IC50 values (procedure of Keating et al.)
# T4 construct: 0.2 μM C-IAP1 BIR3
# Protocol: as §1, §2
# T4 sequence (Q13490 253-363 limits assumed): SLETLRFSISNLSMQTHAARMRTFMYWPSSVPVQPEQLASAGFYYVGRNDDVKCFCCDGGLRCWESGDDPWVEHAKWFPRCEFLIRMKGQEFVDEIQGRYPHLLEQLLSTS
# T3 sequence (Q13489 238-349 limits assumed): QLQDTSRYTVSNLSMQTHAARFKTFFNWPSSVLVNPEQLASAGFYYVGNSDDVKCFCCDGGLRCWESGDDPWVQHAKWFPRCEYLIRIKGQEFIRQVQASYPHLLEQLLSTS
# T1 sequence (P98170 241-356 limits assumed): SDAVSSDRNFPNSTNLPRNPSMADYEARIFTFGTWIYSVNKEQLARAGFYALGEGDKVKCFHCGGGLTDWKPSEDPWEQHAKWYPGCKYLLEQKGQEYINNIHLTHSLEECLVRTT
smiles,measurement,setting,value
CN[C@@H](C)C(=O)N[C@H](C(=O)N(C)[C@H](C(=O)Nc1snnc1-c1ccccc1)C(C)(C)SC)C1CCCCC1 [Compound 23],pIC50,X-IAP BIR3,4.85
same,pKi,X-IAP BIR3,5.60
same,pIC50,[1],6.52
same,pKi,[1],7.16
same,pIC50,C-IAP2 BIR3,6.56
same,pKi,C-IAP2 BIR3,7.22
same,pIC50,C-IAP1 BIR3,6.81
same,pKi,C-IAP1 BIR3,7.62
"CN[C@@H](C)C(=O)N[C@H](C(=O)N(C)[C@H](C(=O)Nc1snnc1-c1ccccc1)C(C)(C)C)C1CCCCC1 [Compound 24, (S)-2-((S)-2-cyclohexyl-N-methyl-2-((S)-2-(methylamino)propan-amido)acetamido)-3,3-dimethyl-N-(4-phenyl-1,2,3-thiadiazol-5-yl)butanamide]",pIC50,X-IAP BIR3,< 3.70
same,pKi,X-IAP BIR3,< 4.46
same,pIC50,[1],5.39
same,pKi,[1],6.03
same,pIC50,C-IAP2 BIR3,5.88
same,pKi,C-IAP2 BIR3,6.55
same,pIC50,C-IAP1 BIR3,5.88
same,pKi,C-IAP1 BIR3,6.69
